Test results reported in patent US12076301B2, “Engaging the cervical spinal cord circuitry to re-enable volitional control of hand function in tetraplegic subjects” (The Regents of the University of California, priority 2013, dated 2024).

System: subjects with a chronic motor complete cervical injury
Assay: Maximal handgrip strength (handgrip force measurement device) in tetraplegic subjects during pcEmc with oral buspirone
Type: in vivo, human
Procedure: Six subjects with chronic (18-36 months) spinal cord injury (SCI, traumatic cervical injury, ASIA B with no motor strength below the injury) were tested to determine if hand function can be improved by neuromodulating the cervical spinal cord. All subjects initially had minimal hand strength, a condition reflecting the majority of cervical SCI patients. Our experimental approach began with 6 weeks of baseline testing (Phase 1), followed by three 2-week treatment periods (Phases 2-4), and then by a period of approximately three months without any treatment at the end of which there was a final 2-week testing period (Phase 5). pcEmc at the C5 spinal segment (Phase 2) increased hand strength in 4/6 subjects compared to baseline Phase 1 (FIG. 1, panels A-G). […]
Voluntary motor control data were assessed using a handgrip force measurement device. […] The number of completed contraction-release sequences across the lines was determined. […] The percentage of data points that fell inside a circular window at a sampling of 15 Hz was determined. […]
The transcutaneous stimulation device is non-invasive. […] Varying combinations of these stimulation parameters were systematically assessed to obtain optimum facilitation of voluntary hand contraction by identification of the relative activation levels of the motor pools studied (data not shown). […]

**Q.** How did the “Mean hand strength increase” value (after pcEmc plus fEmc (buspirone) treatment, 6 subjects, 7.5 mg buspirone twice daily for 2 weeks, oral) turn out when `O=C1CC2(CCCC2)CC(=O)N1CCCCN1CCN(c2ncccn2)CC1` [buspirone] was run?
**A.** Its value is “greater than 300%”.

**Q.** What about the “Subjects with increased hand strength compared to Phase 1 and 2” value (during buspirone treatment (Phase 3) with pcEmc at C5, number of subjects out of 6) of the same compound?
**A.** The value was 4/6.
